The text below walks through data of PubChem BioAssay (NCI).

Molecules are shown by their SMILES.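 Cultured in 96-well plates, cells were exposed to test compound for 48 hours across five concentrations. The concentration for full growth arrest is given as TGI.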

Common to all, as to assay: NCI-60 cell line screen, 48 h
For assay [1], the system named is CCRF-CEM leukemia.
For assay [2], the system named is 786-0 renal.
Assay [3] concerns M14 melanoma.
In assay [4] the test system is SF-295 CNS.
Assay [5] has as its system CAKI-1 renal.
Assay [6] has as its system MALME-3M melanoma.
The test system of assay [7] is SF-539 CNS.
In assay [8] the test system is SK-MEL-2 melanoma.
Assay [9] concerns HOP-62 NSCLC.
For assay [10], the system named is MOLT-4 leukemia.
Assay [11] relates to PC-3 prostate.
Assay [12] has as its system HS 578T breast.
In assay [13] the test system is SW-620 colon.
Assay [14] concerns BT-549 breast.
The subject of assay [15] is EKVX NSCLC.
Assay [16] concerns UACC-257 melanoma.
In assay [17] the test system is OVCAR-4 ovarian.
Assay [18] concerns MDA-N.
The subject of assay [19] is SK-MEL-5 melanoma.
Assay [20] relates to RPMI-8226 leukemia.

For `O=C1C(c2c(O)[nH]c3ccc(Cl)cc23)=Nc2ccccc21`, the TGI in [1] is greater than 100 µM; in assay [2] it was 3.9 µM; in assay [3], greater than 100 µM; in assay [4], greater than 78.8 µM; in assay [5], greater than 71.6 µM; in assay [6], greater than 58.4 µM. The TGI in [7] was 17.9 µM; in [8] it was greater than 26.3 µM; in [9] it was 38 µM; in assay [10], greater than 100 µM; in assay [11], greater than 28 µM; in [12] it was 24.1 µM. The TGI was greater than 100 µM in assay [13]; greater than 100 µM in assay [14]; greater than 53.1 µM in assay [15]; greater than 100 µM in assay [16]; 5.42 µM in [17]; greater than 100 µM in assay [18]. The values for the TGI in [19] and in assay [20] were 17.7 µM and greater than 100 µM, respectively.
`COc1ccc(CCc2ccc3c(c2)OCO3)cc1`: the TGI in assay [1], in [2], in assay [3], in assay [4], in assay [5] and in [6] was greater than 100 µM each time. Also, the TGI in assay [7] is greater than 100 µM; in assay [8], 92.4 µM; in assay [9], greater than 100 µM; in assay [10] it was greater than 100 µM; in assay [11], greater than 100 µM; in assay [12], greater than 100 µM. The TGI in [13], in assay [14], in assay [15], in assay [16], in assay [17] and in assay [18] was greater than 100 µM each time. For the same molecule, the TGI in assay [19] and in assay [20] was greater than 100 µM in each case.
As for `C[C@H](CCC(=O)NCCS(=O)(=O)O)[C@H]1CC[C@H]2[C@@H]3[C@H](O)C[C@@H]4C[C@H](O)CC[C@]4(C)[C@H]3CC[C@]12C`, the TGI in [1], in [2], in assay [3], in assay [4], in assay [5] and in assay [6] was greater than 100 µM throughout. Also, the TGI in [7], in assay [8], in assay [9], in assay [10], in [11] and in [12] was greater than 100 µM in each case. The TGI in assay [13], in assay [14], in assay [15], in assay [16], in assay [17] and in assay [18] was greater than 100 µM each time. Further, the TGI in assay [19] and in assay [20] was greater than 100 µM each time.
Turning to `Cc1nc2c(O)c3c(c(O)c2nc1C)C1C=CC3CC1`, the TGI was 3.53 µM in [1]; 27.6 µM in [2]; 29.4 µM in assay [3]; 47.2 µM in assay [4]; 14.9 µM in [5]; 26.1 µM in assay [6]. The TGI in assay [7] worked out at 22 µM; in assay [8], 33 µM; in [9] it was 36.4 µM; in assay [10], 2.9 µM; in assay [11], 35.9 µM; in assay [12] it was 78.3 µM. For the same molecule, the TGI in [13] came out at 30.3 µM; in assay [14], 30.4 µM; in assay [15], 24.6 µM; in [16], 18.2 µM; in assay [17], 6.22 µM; in assay [18], 7.37 µM. Besides, the TGI was found to be 27.7 µM in assay [19] and 15.4 µM in assay [20].
As for `C1=Nc2ccc(cc2)-c2ccc(cc2)N=Cc2ccc(cc2)OCc2cccc(n2)COc2ccc1cc2`, the TGI in [1], in [2], in assay [3], in assay [4], in [5] and in assay [6] was greater than 100 µM each time. For the same molecule, the TGI in assay [7] is greater than 100 µM; in assay [8] it was greater than 100 µM; in [9], greater than 100 µM; in assay [10], greater than 100 µM; in assay [11], greater than 100 µM; in [12] it was 73.2 µM. Also, the TGI in assay [13], in assay [14], in assay [15], in assay [16], in [17] and in assay [18] was greater than 100 µM each time. Further, the TGI in assay [19] and in [20] was greater than 100 µM each time.
With `CC1CC(=NC2CCCCC2)Nc2ccccc2N1Cc1ccccc1` (stereo not given), the TGI in assay [1] was greater than 36.4 µM; in assay [2], greater than 39 µM; in assay [3], 4.46 µM; in assay [4], 19.4 µM; in assay [5], 19.2 µM; in assay [6], 8.8 µM. The TGI was 22.5 µM in assay [7]; 24.9 µM in assay [8]; 20.3 µM in assay [9]; 30 µM in assay [10]; 18.3 µM in assay [11]; 19.7 µM in assay [12]. Moreover, the TGI in [13] was 23 µM; in [14], 18.7 µM; in [15], 21 µM; in [16], 13.2 µM; in assay [17], 20.2 µM; in assay [18], 12.5 µM. Also, the figures for the TGI in assay [19] and in [20] were 6.77 µM and greater than 32.7 µM, respectively.
Consider `C=CCSC1=N/C(=C\c2ccc(OC)cc2)C(=O)N1CC=C`, for which the TGI in assay [1] was 78 µM; in assay [2], greater than 100 µM; in [3], greater than 100 µM; in [4] it was greater than 100 µM; in [5] it was greater than 100 µM; in assay [6] it was 87.7 µM. The TGI in [7] is greater than 100 µM; in assay [8] it was 91.5 µM; in assay [9] it was greater than 100 µM; in assay [10] it was 37.1 µM; in [11] it was 80.1 µM; in assay [12] it was greater than 100 µM. For the same molecule, the TGI was greater than 100 µM in assay [13]; 74.4 µM in assay [14]; 59.2 µM in [15]; 58.4 µM in [16]; greater than 100 µM in assay [17]; 59.8 µM in assay [18]. For the same molecule, the TGI in [19] turned out to be 29 µM; in [20] it was 42 µM.
As to `CSC1(C(=O)O)C2CCC3C2CCC31` (stereo not given), the TGI in [1], in assay [2], in assay [3], in [4], in [5] and in assay [6] was greater than 100 µM throughout. The TGI in assay [7], in assay [8], in [9], in [10], in [11] and in assay [12] was greater than 100 µM throughout. The TGI in [13], in assay [14], in [15], in assay [16], in [17] and in assay [18] was greater than 100 µM each time. Besides, the TGI in [19] and in [20] was greater than 100 µM each time.
Turning to `COc1cccc(/C=C2\SC(=S)N(/C=C3\C(=O)Oc4ccccc4C3=O)C2=O)c1O`, the TGI in [1], in assay [2], in assay [3], in assay [4], in [5] and in assay [6] was greater than 100 µM each time. Moreover, the TGI in assay [7] was 83.2 µM; in assay [8], greater than 100 µM; in assay [9] it was greater than 100 µM; in assay [10] it was greater than 100 µM; in assay [11] it was greater than 100 µM; in assay [12], 82.3 µM. For the same molecule, the TGI in [13] is greater than 100 µM; in assay [14] it was 55.6 µM; in assay [15], greater than 100 µM; in assay [16] it was greater than 100 µM; in [17] it was greater than 100 µM; in assay [18], greater than 100 µM. Moreover, the figures for the TGI in assay [19] and in assay [20] were greater than 100 µM and 80.3 µM, respectively.
`Cc1ccc(Nc2nc(=O)c3c([nH]c4ccccc43)s2)cc1`: the TGI in [1] came out at 53.3 µM; in assay [2], 27.6 µM; in assay [3], 18.1 µM; in assay [4], 24.3 µM; in [5] it was 24.5 µM; in assay [6], 26.8 µM. The TGI in [7] is 31.6 µM; in assay [8], 31.3 µM; in [9], 21.8 µM; in assay [10], greater than 100 µM; in assay [11], 28.3 µM; in [12] it was 75 µM. Moreover, the TGI in assay [13] turned out to be 24.3 µM; in [14], 33.5 µM; in assay [15], 64.2 µM; in assay [16], 31.5 µM; in assay [17] it was 55.4 µM; in [18], 5.87 µM. Moreover, the TGI in assay [19] worked out at 20.8 µM; in assay [20] it was 23.6 µM.
`Cc1cccc(Nc2nc3ccccc3nc2NS(=O)(=O)c2ccccc2)c1`: the TGI is 86.5 µM in [1]; greater than 100 µM in [2]; greater than 100 µM in assay [3]; greater than 100 µM in [4]; greater than 100 µM in assay [5]; greater than 100 µM in assay [6]. Moreover, the TGI is greater than 100 µM in assay [7]; 68.6 µM in assay [8]; 87.1 µM in [9]; 61.6 µM in [10]; 72 µM in assay [11]; greater than 100 µM in assay [12]. The TGI was greater than 100 µM in assay [13]; greater than 100 µM in [14]; greater than 100 µM in [15]; greater than 100 µM in [16]; 19.7 µM in assay [17]; greater than 100 µM in [18]. In addition, the TGI in assay [19] and in assay [20] was greater than 100 µM in each case.
Consider `CC(C)OC(=O)C1(C(C)C)CCc2ccc(C(=O)CCC(=O)O)cc21` (stereo not given), for which the TGI in assay [1], in assay [2], in [3], in assay [4], in assay [5] and in assay [6] was greater than 100 µM each time. Moreover, the TGI in assay [7], in [8], in [9], in [10], in assay [11] and in assay [12] was greater than 100 µM in each case. Also, the TGI in assay [13], in assay [14], in assay [15], in assay [16], in assay [17] and in assay [18] was greater than 100 µM in each case. Also, the TGI in assay [19] and in assay [20] was greater than 100 µM throughout.
